Calls of active or inactive are those of the source. No rule for the calls is given here.
System: CCRIS mutagenicity, Ames/micronucleus/aberration tests
Test: CCRIS mutagenicity studies

Compound: CCOC(N)=O
- mutagenic call (End Point: IN VITRO MICRONUCLEUS, Test System: CHL/IU CELLS, Metabolic Activation: RAT, LIVER, S-9, PHENOBARBITAL AND 5,6-BENZOFLAVONE): inactive; negative
- mutagenic call (End Point: IN VITRO MICRONUCLEUS, Test System: V79 CELLS, Metabolic Activation: NONE): inactive; negative
- mutagenic call (End Point: IN VIVO MICRONUCLEUS, Test System: BLOOD PERIPHERAL POLYCHROMATIC AND NORMOCHROMATIC ERYTHROCYTES, Species: MICE, Strain/Sex: CYP2E1+/+ WILD TYPE/MALE, Route: ORAL (GAVAGE)): active; positive for both types of cells
- mutagenic call (End Point: IN VIVO MICRONUCLEUS, Test System: BLOOD PERIPHERAL POLYCHROMATIC AND NORMOCHROMATIC ERYTHROCYTES, Species: MOUSE, Strain/Sex: CYP2E1-/- KO (KNOCKOUT)/MALE, Route: ORAL (GAVAGE)): inactive; negative for nce; equivocal for pce
- mutagenic call (End Point: IN VIVO MICRONUCLEUS, Test System: ERYTHROCYTES, Species: MOUSE, Strain/Sex: WILD-TYPE (CYP2E1+/+, WT)/MALE, Route: GAVAGE): active; positive; significant dose-dependent increase in both polychromatic and normochr
- mutagenic call (End Point: IN VIVO MICRONUCLEUS, Test System: PERIPHERAL BLOOD ERYTHROCYTES, Species: MOUSE, Strain/Sex: KNOCK OUT (CYP2E1-/-, KO)/MALE, Route: GAVAGE): inactive; negative (normochromatic erythrocytes); authors described results in polychromat
- mutagenic call (Test System: AMES SALMONELLA TYPHIMURIUM, Strain/Indicator: TA97, Metabolic Activation: HAMSTER, LIVER, S-9, AROCLOR 1254 (30%), Method: PREINCUBATION): inactive; negative
- mutagenic call (Test System: AMES SALMONELLA TYPHIMURIUM, Strain/Indicator: TA97, Metabolic Activation: NONE, Method: PREINCUBATION): inactive; negative
- mutagenic call (Test System: AMES SALMONELLA TYPHIMURIUM, Strain/Indicator: TA97, Metabolic Activation: RAT, LIVER, S-9, AROCLOR 1254 (30%), Method: PREINCUBATION): inactive; negative
- mutagenic call (Test System: AMES SALMONELLA TYPHIMURIUM, Strain/Indicator: TA98, Metabolic Activation: HAMSTER, LIVER, S-9, AROCLOR 1254 (30%), Method: PREINCUBATION): inactive; negative
- mutagenic call (Test System: AMES SALMONELLA TYPHIMURIUM, Strain/Indicator: TA98, Metabolic Activation: NONE, Method: PREINCUBATION): inactive; negative
- mutagenic call (Test System: AMES SALMONELLA TYPHIMURIUM, Strain/Indicator: TA98, Metabolic Activation: RAT LIVER S-9, AROCLOR 1254, Method: PREINCUBATION): inactive; negative
- mutagenic call (Test System: AMES SALMONELLA TYPHIMURIUM, Strain/Indicator: TA98, Metabolic Activation: RAT, LIVER, S-9, AROCLOR 1254 (30%), Method: PREINCUBATION): inactive; negative
- mutagenic call (Test System: AMES SALMONELLA TYPHIMURIUM, Strain/Indicator: TA98, Metabolic Activation: RAT, LIVER, S-9, ETHANOL, Method: PREINCUBATION): inactive; negative
- mutagenic call (Test System: AMES SALMONELLA TYPHIMURIUM, Strain/Indicator: TA98, Metabolic Activation: RAT, LIVER, S-9, PYRAZOLE, Method: PREINCUBATION): inactive; negative
- mutagenic call (Test System: AMES SALMONELLA TYPHIMURIUM, Strain/Indicator: TA98, Metabolic Activation: RAT, LIVER, S-9, Method: STANDARD PLATE): inactive; negative
- mutagenic call (Test System: AMES SALMONELLA TYPHIMURIUM, Strain/Indicator: TA100, Metabolic Activation: HAMSTER, LIVER, S-9, AROCLOR 1254 (5, 10 OR 30%), Method: PREINCUBATION): inactive; negative
- mutagenic call (Test System: AMES SALMONELLA TYPHIMURIUM, Strain/Indicator: TA100, Metabolic Activation: NONE, Method: PREINCUBATION): inactive; negative
- mutagenic call (Test System: AMES SALMONELLA TYPHIMURIUM, Strain/Indicator: TA100, Metabolic Activation: RAT LIVER S-9, AROCLOR 1254, Method: PREINCUBATION): inactive; negative
- mutagenic call (Test System: AMES SALMONELLA TYPHIMURIUM, Strain/Indicator: TA100, Metabolic Activation: RAT, LIVER, S-9, AROCLOR 1254 (5, 10 OR 30%), Method: PREINCUBATION): inactive; negative
- mutagenic call (Test System: AMES SALMONELLA TYPHIMURIUM, Strain/Indicator: TA100, Metabolic Activation: RAT, LIVER, S-9, ETHANOL, Method: PREINCUBATION): inactive; negative
- mutagenic call (Test System: AMES SALMONELLA TYPHIMURIUM, Strain/Indicator: TA100, Metabolic Activation: RAT, LIVER, S-9, PYRAZOLE, Method: PREINCUBATION): inactive; negative
- mutagenic call (Test System: AMES SALMONELLA TYPHIMURIUM, Strain/Indicator: TA100, Metabolic Activation: RAT, LIVER, S-9, Method: STANDARD PLATE): inactive; negative
- mutagenic call (Test System: AMES SALMONELLA TYPHIMURIUM, Strain/Indicator: TA102, Metabolic Activation: NONE, Method: PREINCUBATION): inactive; negative
- mutagenic call (Test System: AMES SALMONELLA TYPHIMURIUM, Strain/Indicator: TA102, Metabolic Activation: RAT LIVER S-9, AROCLOR 1254, Method: PREINCUBATION): inactive; negative
- mutagenic call (Test System: AMES SALMONELLA TYPHIMURIUM, Strain/Indicator: TA102, Metabolic Activation: RAT LIVER S-9, PHENOBARBITAL AND 5,6-BENZOFLAVONE, Method: STANDARD PLATE): inactive; negative
- mutagenic call (Test System: AMES SALMONELLA TYPHIMURIUM, Strain/Indicator: TA102, Metabolic Activation: RAT, LIVER, S-9, ETHANOL, Method: PREINCUBATION): inactive; negative
- mutagenic call (Test System: AMES SALMONELLA TYPHIMURIUM, Strain/Indicator: TA102, Metabolic Activation: RAT, LIVER, S-9, PYRAZOLE, Method: PREINCUBATION): inactive; negative
- mutagenic call (Test System: AMES SALMONELLA TYPHIMURIUM, Strain/Indicator: TA1535, Metabolic Activation: HAMSTER, LIVER, S-9, AROCLOR 1254 (30%), Method: PREINCUBATION): active; positive
- mutagenic call (Test System: AMES SALMONELLA TYPHIMURIUM, Strain/Indicator: TA1535, Metabolic Activation: NONE, Method: PREINCUBATION): inactive; negative
- mutagenic call (Test System: AMES SALMONELLA TYPHIMURIUM, Strain/Indicator: TA1535, Metabolic Activation: RAT, LIVER, S-9, AROCLOR 1254 (5 OR 10%), Method: PREINCUBATION): inactive; negative
- mutagenic call (Test System: AMES SALMONELLA TYPHIMURIUM, Strain/Indicator: TA1535, Metabolic Activation: RAT, LIVER, S-9, AROCLOR 1254 (30%), Method: PREINCUBATION): inactive; negative
- mutagenic call (Test System: AMES SALMONELLA TYPHIMURIUM, Strain/Indicator: TA1535, Metabolic Activation: RAT, LIVER, S-9, ETHANOL, Method: PREINCUBATION): inactive; negative
- mutagenic call (Test System: AMES SALMONELLA TYPHIMURIUM, Strain/Indicator: TA1535, Metabolic Activation: RAT, LIVER, S-9, PYRAZOLE, Method: PREINCUBATION): inactive; negative
- mutagenic call (Test System: AMES SALMONELLA TYPHIMURIUM, Strain/Indicator: TA1537, Metabolic Activation: HAMSTER, LIVER, S-9, AROCLOR 1254 (30%), Method: PREINCUBATION): inactive; negative
- mutagenic call (Test System: AMES SALMONELLA TYPHIMURIUM, Strain/Indicator: TA1537, Metabolic Activation: NONE, Method: PREINCUBATION): inactive; negative
- mutagenic call (Test System: AMES SALMONELLA TYPHIMURIUM, Strain/Indicator: TA1537, Metabolic Activation: RAT, LIVER, S-9, AROCLOR 1254 (30%), Method: PREINCUBATION): inactive; negative
- mutagenic call (Test System: AMES SALMONELLA TYPHIMURIUM, Strain/Indicator: TA1537, Metabolic Activation: RAT, LIVER, S-9, PYRAZOLE, Method: PREINCUBATION): inactive; negative
- mutagenic call (Test System: AMES SALMONELLA TYPHIMURIUM, Strain/Indicator: TA2638, Metabolic Activation: RAT LIVER S-9, PHENOBARBITAL AND 5,6-BENZOFLAVONE, Method: STANDARD PLATE): inactive; negative
- mutagenic call (Test System: Ames Salmonella typhimurium, Strain/Indicator: YG7108pin3ERb5, Metabolic Activation: None, Method: Standard plate): inactive; negative
- mutagenic call (Test System: E. COLI, Strain/Indicator: WP2 (PKM101), Metabolic Activation: RAT LIVER S-9, PHENOBARBITAL AND 5,6-BENZOFLAVONE, Method: STANDARD PLATE): inactive; negative
- mutagenic call (Test System: E. COLI, Strain/Indicator: WP2 UVRA (PKM101), Metabolic Activation: RAT LIVER S-9, PHENOBARBITAL AND 5,6-BENZOFLAVONE, Method: STANDARD PLATE): inactive; negative
- mutagenic call (Test System: E. COLI, Strain/Indicator: WP2 UVRA, Metabolic Activation: NONE, Method: FLUCTUATION TEST): inactive; negative
- mutagenic call (Test System: MOUSE LYMPHOMA, Strain/Indicator: L5178Y (TK+/TK-), Metabolic Activation: NONE, Method: MICROWELL): inactive; negative
- mutagenic call (Test System: MOUSE LYMPHOMA, Strain/Indicator: L5178Y (TK+/TK-), Metabolic Activation: S-9, Method: MICROWELL): inactive; negative
- mutagenic call (Test System: UDS MOUSE SPERMATIDS, Strain/Indicator: THY INCORP, Metabolic Activation: NONE): active; positive
